In article PMC5385520 (Scientific Reports, 2017):
Where two headings read alike, the source gives them in different places.

Legend:
[1] = biological target: T1, hDDO (human D-aspartate oxidase) (Homo sapiens, UniProt Q99489); assay: coupled HRP / Amplex UltraRed fluorescence assay; format: biochemical; design: gene DDO; recombinant
T1 sequence (Q99489 1-341): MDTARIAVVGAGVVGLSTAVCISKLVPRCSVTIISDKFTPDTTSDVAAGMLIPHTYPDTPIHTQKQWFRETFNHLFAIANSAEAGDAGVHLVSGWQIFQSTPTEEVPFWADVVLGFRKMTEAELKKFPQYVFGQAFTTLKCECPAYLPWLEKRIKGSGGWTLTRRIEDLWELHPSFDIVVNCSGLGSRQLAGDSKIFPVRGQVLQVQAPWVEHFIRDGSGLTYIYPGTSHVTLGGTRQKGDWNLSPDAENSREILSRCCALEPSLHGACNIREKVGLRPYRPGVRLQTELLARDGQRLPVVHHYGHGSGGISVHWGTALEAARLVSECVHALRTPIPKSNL

[2] = biological target: T1, hDDO (human D-aspartate oxidase); assay: biochemical; design: gene DDO
[3] = biological target: T2, mDDO (mouse D-aspartate oxidase) (Mus musculus, UniProt Q922Z0); assay: coupled HRP / Amplex UltraRed fluorescence assay; format: biochemical; conditions: D-Asp 7.5 mM; FAD 4 and 100 μM; inactive up to 300 μM
T2 construct: gene Ddo; recombinant
T2 sequence (Q922Z0 1-341): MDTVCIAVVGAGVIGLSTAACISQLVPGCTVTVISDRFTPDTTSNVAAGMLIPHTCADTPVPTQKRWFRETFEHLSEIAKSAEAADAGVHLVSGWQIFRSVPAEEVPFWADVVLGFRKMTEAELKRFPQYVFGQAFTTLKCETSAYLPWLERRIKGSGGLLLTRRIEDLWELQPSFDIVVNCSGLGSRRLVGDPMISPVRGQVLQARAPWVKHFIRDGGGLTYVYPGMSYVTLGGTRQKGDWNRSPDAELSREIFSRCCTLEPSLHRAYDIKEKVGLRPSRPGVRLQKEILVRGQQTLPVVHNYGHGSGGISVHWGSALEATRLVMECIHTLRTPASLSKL

[4] = read-out: Concentration (μM) / 1000
[5] = read-out: Concentration (μM) / 100

SMILES | activity at 1000 µM [1, 4] | activity at 1000 µM [1, 5] | other results
Cc1cc2c(s1)Nc1ccccc1N=C2N1CCN(C)CC1 [olanzapine] |  |  | IC50 [2]: 23.4 ± 1.6 µM
O=C(CCCN1CCC(O)(c2ccc(Cl)cc2)CC1)c1ccc(F)cc1 [haloperidol] |  | 100% | 
CN1CCN(C2=Nc3cc(Cl)ccc3Nc3ccccc32)CC1 [clozapine] |  | > 95% | coupled HRP / Amplex UltraRed fluorescence assay [3]: both mDDO and hDDO was unaffected by clozapine at all concentrations tested

Second part, led by results:

activity at 1000 µM [1, 4] | SMILES | activity at 1000 µM [1, 5] | other results
> 90% | CN(C)CCCN1c2ccccc2Sc2ccc(Cl)cc21 [chlorpromazine] |  | 
89% | CC(NC(C)(C)C)C(=O)c1cccc(Cl)c1 (stereo not drawn) [bupropion] |  | 
